Holding throughout (experiment): NCI tumour cell line growth inhibition, 48 h
The subject of test [1] is KM12 colon.
The test system of test [2] is NCI-H226 lung.
In test [3] the test system is SF-268 CNS.
For test [4], the system named is ACHN renal.
For test [5], the system named is SK-MEL-5 melanoma.
The test system of test [6] is 786-0 renal.
Test [7] has as its system OVCAR-5 ovarian.
The test system of test [8] is MALME-3M melanoma.
Test [9] relates to MDA-MB-231 breast.
The test system of test [10] is BT-549 breast.

Values joined by “and” are separate entries in the source; they are usually repeats but may differ in a detail not shown here. Equal values may be shown once.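 96-well plates; 48 h exposure; 5 concentrations. Endpoints by linear interpolation between flanking doses. Not reached: highest tested concentration assigned. GI50 marks 50% less growth. Definition used: TGI = concentration required for complete inhibition of growth.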 Where only a bound is given, the exact number is not on record here.

In the case of `NC(=O)CCCC(NCc1c2ccccc2nc2ccccc12)C(=O)O` (centres undefined), the TGI in [1], in test [2], in test [3], in test [4], in test [5] and in test [6] was greater than 100 µM in each case. Besides, the TGI in test [7] and in [8] was greater than 100 µM each time.

With `CCCCCCCSc1nc2c(C(=O)OCC)ncn2c2ccccc12`, the TGI in test [1], in test [2], in test [3], in test [4], in test [7] and in [8] was greater than 100 µM throughout.

For `N#CC(c1ccccc1)c1nc2ccc(=N)cc-2n(O)c1C(C#N)c1ccccc1` (centres undefined), the TGI in test [1], in test [2], in test [3], in test [4], in test [6] and in test [7] was greater than 100 µM throughout. The molecule further returned a TGI in [8] greater than 100 µM.

With `COC(=O)C1=CSC2(S1)C(C(=O)OC)=CSc1c2ssc1=Nc1ccccc1` (centres undefined), the TGI in test [9] is 4.79 µM; in test [1], 10.1 µM; in test [3], greater than 100 µM; in test [10] it was 22.6 µM; in test [4], 6.57 µM; in test [5], 9.07 µM. Besides, the TGI in [6] is 3.87 µM; in test [7] it was 17.7 µM; in test [8], 4.95 µM.

`O=c1oc2ccccc2c2c(=O)c3ccc(OC/C(=N/O)c4ccc(Cl)cc4)cc3oc12`: the TGI in [9] turned out to be 43.2 µM; in [1] it was 14 µM; in [2], 36.2 µM; in test [3], 41.8 µM; in [4], 19.2 µM; in [5], 18.7 µM. In addition, the results for the TGI in test [6] and in test [7] were 24.2 µM and 37 µM, respectively.

In the case of `CN(C)CCNc1nc(-c2ccc3ccccc3c2)nc2nc[nH]c12`, the TGI in [9] worked out at 26.5 µM; in test [1], 19.3 µM; in test [2], 16.6 µM; in test [3], 25.1 µM; in [10], 23.4 µM; in [4] it was 11.9 µM. The TGI came to 25 µM in [5], 32.1 µM in test [6], 26 µM in [7] and 16.6 µM in test [8].

On to `Cc1ccc(S(=O)(=O)NCCSCCNS(=O)(=O)c2ccc(C)cc2)cc1`, for which the TGI in test [9], in test [1], in test [2], in test [3], in [4] and in test [5] was greater than 100 µM in each case.

On to `Cc1ccc(Oc2ccc(C)cc2[N+](=O)[O-])cc1`, for which the TGI is greater than 100 µM in test [1]; greater than 100 µM in test [2]; greater than 100 µM in [3]; greater than 100 µM in test [4]; 92.6 µM in test [5]; greater than 100 µM in test [7]. Moreover, in test [8], the TGI is greater than 100 µM.

In the case of `CC(=O)C(O)N1C(=O)C=CC1=O` (centres undefined), the GI50 in [9] is 13400 µM; in [7], 10500 µM. The TGI in test [1] is 25 µM and 31.2 µM and 34.7 µM; in test [3], 17.9 µM and 51.8 µM; in test [10], 24.8 µM.

In the case of `CC(=O)Nc1ccccc1SCCSSCCSc1ccccc1NC(C)=O`, the TGI in [9] is 91.4 µM; in test [1] it was greater than 100 µM; in test [2], 81.8 µM; in test [3], greater than 100 µM; in test [10] it was greater than 100 µM; in test [4], 39.1 µM. Moreover, the TGI was greater than 100 µM in test [5], 64.3 µM in test [6], 79.2 µM in [7] and greater than 100 µM in test [8].

In the case of `CN(C)c1ccc(/C=N\NC(=O)CSCC(=O)N/N=C/c2ccc(N(C)C)cc2)cc1`, the TGI in test [9] was 58.6 µM; in test [1], greater than 100 µM; in test [2] it was greater than 100 µM; in test [3], greater than 100 µM; in test [10], 80.4 µM; in test [4], greater than 100 µM. Besides, the TGI in test [5], in [6], in test [7] and in test [8] was greater than 100 µM each time.

For the molecule `O=c1ccc2cc(O)c(O)cc2o1`, the TGI in test [9], in test [1], in test [2], in test [3], in test [10] and in test [4] was greater than 100 µM each time. The TGI in [5], in [6], in test [7] and in test [8] was greater than 100 µM throughout.

With `NC(=O)NN=C(CS)CS`, the TGI is greater than 100 µM in test [1]; greater than 79.9 µM in test [3]; 32.8 µM in [5]; 55.7 µM in test [7]; 40 µM in test [8].

`O=C(O[C@H]1[C@@H](O)[C@H](n2cnc3c(Cl)ncnc32)O[C@@H]1COC(c1ccccc1)(c1ccccc1)c1ccccc1)c1ccccc1`: the TGI in [9] is 51.1 µM; in test [1], 41.7 µM; in test [2], greater than 100 µM; in test [3], 61.3 µM; in test [10], 97.7 µM; in test [4], 31 µM. Besides, the TGI in test [5] is 31.8 µM; in test [6], 58.1 µM; in test [7], greater than 100 µM.

On to `CCCN(C(=O)c1c(Cl)nnc(Cl)c1C(=O)c1cc(Cl)nnc1Cl)c1cc(Cl)nnc1Cl`, for which the TGI came to 34.3 µM in [9]; 26.4 µM in test [1]; 57.3 µM in [2]; 20.2 µM in test [3]; 32.9 µM in test [10]; 25.5 µM in [4]. Besides, the TGI worked out at 21.4 µM in [5], 21 µM in [6] and 41.2 µM in test [7].

`C/C=C/[P+](c1ccccc1)(c1ccccc1)c1ccccc1`: the TGI was 14.4 µM in test [9]; 7.7 µM in test [1]; 41.4 µM in [2]; 17.1 µM in test [3]; 3 µM in test [10]; 62.5 µM in test [4]. In addition, the TGI was determined as 9.54 µM in [5], 37.6 µM in test [6], 33.2 µM in test [7] and 13.6 µM in test [8].
